The values that follow come from ChEMBL document CHEMBL4680193, “Isoindoline scaffold-based dual inhibitors of HDAC6 and HSP90 suppressing the growth of lung cancer in vitro and in vivo” (Eur J Med Chem, 2020).

pIC50: −log10 of the molar value. The source made the active and inactive calls. The rule behind the calls is not given here.

Assay [1] is filed under the species Homo sapiens. The assay is described as follows: Selectivity index, ratio of IC50 for recombinant human HDAC3 to IC50 for recombinant human HDAC6.
The subject of assay [2] is NCI-H1975. The assay is described as follows: Inhibition of IFN-gamma-induced PD-L1 in human NCI-H1975 cells incubated for 48 hrs by Western blot analysis. It counts as functional, cell-based. The conditions noted are these: dose 0.3-3 µM. In general terms: A western blot detects proteins with antibodies after separation by electrophoresis.
Assay [3] concerns NCI-H1975. The assay is described as follows: Antitumor activity against human NCI-H1975 cells xenografted in BALB/c mouse assessed as reduction in tumor growth at 100 mg/kg, ip administered for 2 weeks and measured after 2 week relative to control. The conditions noted are these: 336 h, read-out: TGI. It counts as functional. A general note: In xenograft studies the graft and the host belong to different species.

Assay [4] relates to NCI-H1975. The assay is described as follows: Inhibition of IFN-gamma-induced PD-L1 in human NCI-H1975 cells at 0.3 uM incubated for 48 hrs by Flow cytometry analysis. It counts as functional, cell-based. For orientation: In flow cytometry, cells or beads pass a laser one at a time.
Assay [5] relates to NCI-H1975. The assay is described as follows: Induction of apoptosis in human NCI-H1975 cells assessed as increase in caspase 8 activation incubated for 48 hrs by PI staining based Western blot analysis. It counts as functional, cell-based. The conditions noted are these: dose 0.1-3 µM.
For assay [6], the target named is T1, Protein deacetylase HDAC6 (Homo sapiens, UniProt Q9UBN7).
T1 sequence (Q9UBN7 whole entry): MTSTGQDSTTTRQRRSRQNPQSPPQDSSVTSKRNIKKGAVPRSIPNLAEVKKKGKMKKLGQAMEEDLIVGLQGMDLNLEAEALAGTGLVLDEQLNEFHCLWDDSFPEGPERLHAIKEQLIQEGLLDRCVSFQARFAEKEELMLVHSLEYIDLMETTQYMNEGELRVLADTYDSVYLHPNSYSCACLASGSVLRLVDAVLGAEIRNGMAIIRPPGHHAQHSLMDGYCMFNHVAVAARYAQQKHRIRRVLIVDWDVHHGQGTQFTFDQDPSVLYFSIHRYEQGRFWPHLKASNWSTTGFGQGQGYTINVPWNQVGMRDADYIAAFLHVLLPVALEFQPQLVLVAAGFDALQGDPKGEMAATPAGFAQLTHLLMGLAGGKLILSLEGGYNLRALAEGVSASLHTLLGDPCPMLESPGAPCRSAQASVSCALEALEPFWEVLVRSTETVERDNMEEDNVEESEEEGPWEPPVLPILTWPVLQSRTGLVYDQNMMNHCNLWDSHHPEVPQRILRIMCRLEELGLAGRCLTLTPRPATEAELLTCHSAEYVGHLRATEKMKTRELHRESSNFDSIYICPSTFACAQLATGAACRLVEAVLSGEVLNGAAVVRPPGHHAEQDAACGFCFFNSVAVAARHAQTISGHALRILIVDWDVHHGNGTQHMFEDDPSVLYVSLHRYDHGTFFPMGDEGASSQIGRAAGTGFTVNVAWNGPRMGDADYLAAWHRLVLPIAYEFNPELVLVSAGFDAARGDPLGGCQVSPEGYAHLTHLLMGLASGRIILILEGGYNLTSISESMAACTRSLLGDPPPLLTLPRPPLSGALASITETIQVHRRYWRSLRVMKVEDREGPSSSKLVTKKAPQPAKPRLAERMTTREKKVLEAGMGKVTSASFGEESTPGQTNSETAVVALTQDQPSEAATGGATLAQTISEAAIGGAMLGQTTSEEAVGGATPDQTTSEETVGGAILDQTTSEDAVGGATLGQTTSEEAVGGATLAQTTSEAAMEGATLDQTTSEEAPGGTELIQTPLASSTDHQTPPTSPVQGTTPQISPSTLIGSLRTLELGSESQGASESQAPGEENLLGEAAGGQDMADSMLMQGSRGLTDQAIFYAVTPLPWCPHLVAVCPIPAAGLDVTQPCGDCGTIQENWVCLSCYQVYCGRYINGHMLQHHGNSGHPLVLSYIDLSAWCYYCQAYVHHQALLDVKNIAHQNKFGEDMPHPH
The assay is described as follows: Inhibition of recombinant human HDAC6 using RHK-K(Ac)-AMC as substrate by fluorescence based assay.

For assay [7], the target named is T2, Heat shock protein HSP90 (Homo sapiens) (UniProt P07900+P08238). The assay is described as follows: Inhibition of HSP90 in human NCI-H1975 cells assessed as decrease in STAT3 Tyr705 phosphorylation at 3 uM measured after 12 hrs by Western blot analysis. It counts as cell-based.
For assay [8], the system named is NCI-H1975. The assay is described as follows: Induction of cell cycle arrest in human NCI-H1975 cells assessed as increase in subG1 phase at 0.1 to 3 uM incubated for 48 hrs by PI staining based flow cytometry analysis. The conditions noted are these: dose 0.1-3 µM. It counts as functional.
The target of assay [9] is T2, Heat shock protein HSP90 (Homo sapiens). The assay is described as follows: Inhibition of HSP90 in human NCI-H1975 cells assessed as downregulation of Akt expression at 0.03 to 0.3 uM measured upto 24 hrs by Western blot analysis. The format is cell-based. The conditions noted are these: dose 0.03-0.3 µM, time hrs <=24.
The species entered for assay [10] is Homo sapiens. The assay is described as follows: Selectivity index, ratio of IC50 for recombinant human C-terminal FLAG-His-tagged HDAC1 (1 to 482 residues) expressed in Sf21 cells to IC50 for recombinant human HDAC6.
Assay [11] has as its system NCI-H1975. The assay is described as follows: Induction of apoptosis in human NCI-H1975 cells assessed as increase in caspase 3 activation incubated for 48 hrs by PI staining based Western blot analysis. The format is functional, cell-based. The conditions noted are these: dose 0.1-3 µM.
A further assay addresses Histone deacetylase 1 (Homo sapiens, UniProt Q13547). The assay is described as follows: Inhibition of recombinant human C-terminal FLAG-His-tagged HDAC1 (1 to 482 residues) expressed in Sf21 cells using RHK-K(Ac)-AMC as substrate incubated for 60 mins by fluorimetry analysis.
A further assay relates to A549. The assay is described as follows: Growth inhibition of human A549 cells incubated for 48 hrs by SRB assay. It counts as functional. The conditions noted are these: Homo sapiens, A549.
For a further assay, the target named is T3, Histone deacetylase 8 (Homo sapiens, UniProt Q9BY41).
T3 sequence (Q9BY41 whole entry): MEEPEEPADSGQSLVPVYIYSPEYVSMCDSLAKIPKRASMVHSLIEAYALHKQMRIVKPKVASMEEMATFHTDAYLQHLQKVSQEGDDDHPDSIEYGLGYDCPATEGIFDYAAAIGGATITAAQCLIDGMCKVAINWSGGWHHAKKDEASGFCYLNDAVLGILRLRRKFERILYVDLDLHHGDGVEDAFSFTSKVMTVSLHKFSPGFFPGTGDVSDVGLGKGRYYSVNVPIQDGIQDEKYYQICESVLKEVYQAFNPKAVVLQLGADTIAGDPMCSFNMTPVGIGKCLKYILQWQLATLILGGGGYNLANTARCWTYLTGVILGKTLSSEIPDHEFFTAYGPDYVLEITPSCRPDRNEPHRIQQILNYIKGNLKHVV
The assay is described as follows: Inhibition of recombinant human HDAC8 using RHK-K(Ac)-AMC as substrate by fluorescence based assay.

A further assay deals with Histone deacetylase. It counts as tissue-based, Homo sapiens. The conditions noted are these: hela.
Assay [12] deals with NCI-H1975. The assay is described as follows: Induction of apoptosis in human NCI-H1975 cells assessed as increase in PARP activation incubated for 48 hrs by PI staining based Western blot analysis. The conditions noted are these: dose 0.1-3 µM. The format is functional, cell-based.
For assay [13], the target named is T4, Protein deacetylase HDAC6 (Homo sapiens) (UniProt Q9UBN7).
T4 sequence (whole entry): T1 sequence (Q9UBN7 whole entry)
The assay is described as follows: Inhibition of HDAC6 in human NCI-H1975 cells assessed as increase in acetylated alpha tubulin level after 24 hrs by Western blot analysis. It counts as cell-based. The conditions noted are these: dose 0.1-3 µM.

Assay [14] addresses Heat shock protein HSP 90-alpha (Homo sapiens, UniProt P07900). The assay is described as follows: Inhibition of HSP90a (unknown origin).
The next assay addresses Histone deacetylase 3 (Homo sapiens, UniProt O15379).

Chain of Histone deacetylase 1 (Q13547 whole entry, the tested form may be a part): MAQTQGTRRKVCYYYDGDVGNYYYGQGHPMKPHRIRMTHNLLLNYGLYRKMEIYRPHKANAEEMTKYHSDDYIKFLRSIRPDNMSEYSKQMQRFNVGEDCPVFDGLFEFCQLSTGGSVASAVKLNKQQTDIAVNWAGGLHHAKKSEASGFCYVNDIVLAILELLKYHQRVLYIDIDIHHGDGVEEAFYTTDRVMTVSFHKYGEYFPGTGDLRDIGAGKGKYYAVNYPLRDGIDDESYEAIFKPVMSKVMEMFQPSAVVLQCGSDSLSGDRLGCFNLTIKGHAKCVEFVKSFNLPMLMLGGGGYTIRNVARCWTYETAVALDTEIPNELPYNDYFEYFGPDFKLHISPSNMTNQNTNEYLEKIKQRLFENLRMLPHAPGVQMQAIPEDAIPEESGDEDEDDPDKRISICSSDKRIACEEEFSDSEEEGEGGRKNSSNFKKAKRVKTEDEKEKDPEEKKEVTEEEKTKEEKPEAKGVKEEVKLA
Chain of Histone deacetylase 3 (O15379 whole entry): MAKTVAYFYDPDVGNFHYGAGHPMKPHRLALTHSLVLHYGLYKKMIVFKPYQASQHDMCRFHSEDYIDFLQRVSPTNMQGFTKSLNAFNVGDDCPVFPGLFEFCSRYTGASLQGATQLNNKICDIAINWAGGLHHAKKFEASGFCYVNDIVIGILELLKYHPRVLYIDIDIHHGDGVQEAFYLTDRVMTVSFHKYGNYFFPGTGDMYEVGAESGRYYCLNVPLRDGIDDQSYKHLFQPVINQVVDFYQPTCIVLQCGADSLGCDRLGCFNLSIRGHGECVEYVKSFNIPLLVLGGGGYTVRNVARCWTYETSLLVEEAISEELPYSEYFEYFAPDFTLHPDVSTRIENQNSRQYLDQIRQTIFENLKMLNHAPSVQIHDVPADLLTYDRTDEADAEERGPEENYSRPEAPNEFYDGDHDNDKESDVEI

Broadly, the pIC50 is the IC50 on a negative log10 scale, so that one unit is a factor of ten. What is called GI50 is the concentration giving 50% growth inhibition. Read a low GI50 as more potent growth inhibition. What is called IC50 is the concentration that inhibits the measured activity by half. Read a low IC50 as inhibition by little substance. With `CC(C)c1cc(C(=O)N2Cc3ccc(NC(=O)CCCCCCCCC(=O)NO)cc3C2)c(O)cc1O`, the figures for the Ratio IC50 in the assay listed under Homo sapiens [1] and in the assay listed under Homo sapiens [10] were 303 and 434, respectively. In addition, the inhibition entry (in the assay with NCI-H1975 [2]; in assay [13]) was “Dose-dependent effect” each time. In addition, the inhibition in vivo at 100 mg/kg with NCI-H1975 [3] is 69.7%. Further, the inhibition result (in the assay with NCI-H1975 [4]; in [7]; in [9]) was “Active” each time. In addition, the Activity result with NCI-H1975 [5], with NCI-H1975 [11] and with NCI-H1975 [12] was “Dose-dependent effect” throughout. Moreover, the pIC50 in assay [6] is 8.36; at Histone deacetylase 1, 5.73; on Histone deacetylase 8, 5.43; in [14] it was 7.33; on Histone deacetylase 3, 5.88. Also, the outcome in the assay on NCI-H1975 [8] was Active. In addition, the GI50 with A549 was determined as 760 nM. The IC50 against Histone deacetylase turned out to be 388.8 nM.
